{
  "source": "ChEMBL document CHEMBL5046233",
  "about": "“Nitroxoline and its derivatives are potent inhibitors of metallo-β-lactamases” (Eur J Med Chem, 2022)",
  "key": {"[1]": {"system": "Bacteria", "test": "Inhibition of recombinant IMP-1 (unknown origin) using fluorocillin as substrate at 30 uM incubated for 30 mins by fluorescence based assay"}, "[2]": {"test": "Inhibition of recombinant NDM-1 (unknown origin) using fluorocillin as substrate at 10 uM incubated for 30 mins by fluorescence based assay", "conditions": "Bacteria"}, "[3]": {"system": "Bacteria", "test": "Inhibition of recombinant VIM-1 (unknown origin) using fluorocillin as substrate at 30 uM incubated for 30 mins by fluorescence based assay"}, "[4]": {"system": "Bacteria", "test": "Inhibition of recombinant VIM-1 (unknown origin) using fluorocillin as substrate at 3 uM incubated for 30 mins by fluorescence based assay"}, "[5]": {"system": "Bacteria", "test": "Inhibition of recombinant VIM-1 (unknown origin) using fluorocillin as substrate at 10 uM incubated for 30 mins by fluorescence based assay"}, "[6]": {"test": "Inhibition of recombinant NDM-1 (unknown origin) using fluorocillin as substrate at 3 uM incubated for 30 mins by fluorescence based assay", "conditions": "Bacteria"}, "[7]": {"system": "Bacteria", "test": "Inhibition of recombinant IMP-1 (unknown origin) using fluorocillin as substrate at 10 uM incubated for 30 mins by fluorescence based assay"}, "[8]": {"system": "Bacteria", "test": "Inhibition of recombinant IMP-1 (unknown origin) using fluorocillin as substrate at 3 uM incubated for 30 mins by fluorescence based assay"}, "[9]": {"test": "Cytotoxicity against human HUVEC cells assessed as metabolic activity measured after 24 hrs by cell-titer blue assay", "assay_type": "toxicity, cell-based"}, "[10]": {"test": "Inhibition of recombinant NDM-1 (unknown origin) using fluorocillin as substrate at 30 uM incubated for 30 mins by fluorescence based assay", "conditions": "Bacteria"}, "[11]": {"system": "Escherichia coli", "test": "Antimicrobial activity against Escherichia coli T2359 expressing VIM-1 assessed as inhibition of bacterial growth at 0.5XMIC for 6 hrs by CLSI protocol based broth microdilution assay", "assay_type": "functional, organism-based"}, "[12]": {"system": "Klebsiella pneumoniae", "test": "Antimicrobial activity against Klebsiella pneumoniae clinical isolate T2301 expressing NDM-1 assessed as inhibition of bacterial growth by CLSI protocol based broth microdilution assay", "assay_type": "functional"}, "[13]": {"system": "Klebsiella pneumoniae", "test": "Antimicrobial activity against Klebsiella pneumoniae T2301 expressing NDM-1 assessed as assessed as inhibition of bacterial growth at 0.5XMIC measured after 24 hrs by time-kill assay", "assay_type": "functional, organism-based"}, "[14]": {"system": "Citrobacter freundii", "test": "Antimicrobial activity against Citrobacter freundii T2354 expressing VIM-4 assessed as inhibition of bacterial growth by CLSI protocol based broth microdilution assay", "assay_type": "functional"}, "[15]": {"system": "Escherichia coli", "test": "Antimicrobial activity against Escherichia coli T2544 expressing VIM-1 assessed as inhibition of bacterial growth by CLSI protocol based broth microdilution assay", "assay_type": "functional"}, "[16]": {"system": "Pseudomonas aeruginosa", "test": "Antimicrobial activity against Pseudomonas aeruginosa T1098 expressing IMP-7 assessed as inhibition of bacterial growth by CLSI protocol based broth microdilution assay", "assay_type": "functional"}, "[17]": {"system": "Klebsiella pneumoniae", "test": "Antimicrobial activity against Klebsiella pneumoniae T2216 expressing VIM-1 assessed as inhibition of bacterial growth by CLSI protocol based broth microdilution assay", "assay_type": "functional"}, "[18]": {"system": "Escherichia coli", "test": "Antimicrobial activity against Escherichia coli clinical isolate T2228 expressing VIM-1 assessed as inhibition of bacterial growth by CLSI protocol based broth microdilution assay", "assay_type": "functional"}, "[19]": {"system": "Pseudomonas aeruginosa", "test": "Antimicrobial activity against Pseudomonas aeruginosa T2357 expressing VIM-1 assessed as inhibition of bacterial growth by CLSI protocol based broth microdilution assay", "assay_type": "functional"}, "[20]": {"system": "Enterobacter cloacae", "test": "Antimicrobial activity against Enterobacter cloacae T2353 expressing VIM-1 assessed as inhibition of bacterial growth by CLSI protocol based broth microdilution assay", "assay_type": "functional"}, "[21]": {"system": "Pseudomonas aeruginosa", "test": "Antimicrobial activity against Pseudomonas aeruginosa T2217 expressing VIM-2 assessed as inhibition of bacterial growth by CLSI protocol based broth microdilution assay", "assay_type": "functional"}, "[22]": {"system": "Serratia marcescens", "test": "Antimicrobial activity against Serratia marcescens T2352 expressing NDM-1 assessed as inhibition of bacterial growth by CLSI protocol based broth microdilution assay", "assay_type": "functional"}, "[23]": {"system": "Enterobacter cloacae", "test": "Antimicrobial activity against Enterobacter cloacae T2218 expressing GIM-1 assessed as inhibition of bacterial growth by CLSI protocol based broth microdilution assay", "assay_type": "functional"}, "[24]": {"system": "Escherichia coli", "test": "Antimicrobial activity against Escherichia coli T2433 expressing OXA-48 assessed as inhibition of bacterial growth by CLSI protocol based broth microdilution assay", "assay_type": "functional"}, "[25]": {"system": "Escherichia coli", "test": "Antimicrobial activity against Escherichia coli T2359 expressing NDM-1 assessed as inhibition of bacterial growth by CLSI protocol based broth microdilution assay", "assay_type": "functional"}, "[26]": {"system": "Pseudomonas aeruginosa", "test": "Antimicrobial activity against Pseudomonas aeruginosa T2229 expressing SPM-1 assessed as inhibition of bacterial growth by CLSI protocol based broth microdilution assay", "assay_type": "functional"}, "[27]": {"system": "Citrobacter freundii", "test": "Antimicrobial activity against Citrobacter freundii expressing T2431 KPC-3 assessed as inhibition of bacterial growth by CLSI protocol based broth microdilution assay", "assay_type": "functional"}, "[28]": {"system": "Pseudomonas aeruginosa", "test": "Antimicrobial activity against Pseudomonas aeruginosa T2282 expressing VIM-2 assessed as inhibition of bacterial growth by CLSI protocol based broth microdilution assay", "assay_type": "functional"}, "[29]": {"system": "Enterobacter cloacae", "test": "Antimicrobial activity against Enterobacter cloacae T2311 expressing NDM-1 assessed as inhibition of bacterial growth by CLSI protocol based broth microdilution assay", "assay_type": "functional"}, "[30]": {"system": "Pseudomonas aeruginosa", "test": "Antimicrobial activity against Pseudomonas aeruginosa T2325 expressing IMP-1 assessed as inhibition of bacterial growth by CLSI protocol based broth microdilution assay", "assay_type": "functional"}, "[31]": {"system": "Escherichia coli", "test": "Antimicrobial activity against Escherichia coli T2359 expressing VIM-1 assessed as assessed as inhibition of bacterial growth at 0.5XMIC measured after 24 hrs by time-kill assay", "assay_type": "functional, organism-based"}, "[32]": {"system": "Klebsiella pneumoniae", "test": "Antimicrobial activity against Klebsiella pneumoniae T2432 expressing KPC-9 assessed as inhibition of bacterial growth by CLSI protocol based broth microdilution assay", "assay_type": "functional"}, "[33]": {"system": "Escherichia coli", "test": "Antimicrobial activity against Escherichia coli T2435 expressing KPC-2 assessed as inhibition of bacterial growth by CLSI protocol based broth microdilution assay", "assay_type": "functional"}, "[34]": {"system": "Escherichia coli", "test": "Antimicrobial activity against Escherichia coli T2351 expressing NDM-5 assessed as inhibition of bacterial growth by CLSI protocol based broth microdilution assay", "assay_type": "functional"}, "[35]": {"system": "Klebsiella pneumoniae", "test": "Antimicrobial activity against Klebsiella pneumoniae T2301 expressing NDM-1 assessed as inhibition of bacterial growth at 0.5XMIC for 6 hrs by CLSI protocol based broth microdilution assay", "assay_type": "functional, organism-based"}, "[36]": {"system": "Pseudomonas aeruginosa", "test": "Antimicrobial activity against Pseudomonas aeruginosa T2283 expressing VIM-2 assessed as inhibition of bacterial growth by CLSI protocol based broth microdilution assay", "assay_type": "functional"}, "[37]": {"system": "Escherichia coli", "conditions": "T2228"}},
  "note": "Calls of active or inactive are those of the source. The calls are words filed in the database; no cut-off is given here.",
  "data": [
    {"compound": "O=[N+]([O-])c1ccc(O)c2ncccc12", "note": "[NITROXOLINE]", "values": [
      {"measurement": "inhibition", "setting": "[1]", "result": 95, "unit": "%"},
      {"measurement": "inhibition", "setting": "[2]", "result": 81, "unit": "%"},
      {"measurement": "inhibition", "setting": "[3]", "result": 75, "unit": "%"},
      {"measurement": "inhibition", "setting": "[4]", "result": "< 20", "unit": "%"},
      {"measurement": "inhibition", "setting": "[5]", "result": 31, "unit": "%"},
      {"measurement": "inhibition", "setting": "[6]", "result": "< 20", "unit": "%"},
      {"measurement": "inhibition", "setting": "[7]", "result": 42, "unit": "%"},
      {"measurement": "inhibition", "setting": "[8]", "result": "< 20", "unit": "%"},
      {"measurement": "IC50 at 24 h", "setting": "[9]", "result": 283, "unit": "µg/mL"},
      {"measurement": "inhibition", "setting": "[10]", "result": 99, "unit": "%"}
    ]},
    {"compound": "C[C@@H](O)[C@H]1C(=O)N2C(C(=O)O)=C(SCCNC=N)C[C@H]12", "note": "[IMIPENEM ANHYDROUS]", "values": [
      {"measurement": "inhibition", "setting": "[11]", "result": "Active"},
      {"measurement": "MIC", "setting": "[12]", "result": 0.016, "unit": "µg/mL"},
      {"measurement": "inhibition", "setting": "[13]", "result": "Active"},
      {"measurement": "MIC", "setting": "[14]", "result": 2, "unit": "µg/mL"},
      {"measurement": "MIC", "setting": "[15]", "result": 0.032, "unit": "µg/mL"},
      {"measurement": "MIC", "setting": "[16]", "result": 0.128, "unit": "µg/mL"},
      {"measurement": "MIC", "setting": "[17]", "result": 0.004, "unit": "µg/mL"},
      {"measurement": "MIC", "setting": "[18]", "result": 0.008, "unit": "µg/mL"},
      {"measurement": "MIC", "setting": "[19]", "result": 0.256, "unit": "µg/mL"},
      {"measurement": "MIC", "setting": "[20]", "result": 0.008, "unit": "µg/mL"},
      {"measurement": "MIC", "setting": "[21]", "result": 0.256, "unit": "µg/mL"},
      {"measurement": "MIC", "setting": "[22]", "result": 0.256, "unit": "µg/mL"},
      {"measurement": "MIC", "setting": "[23]", "result": 0.002, "unit": "µg/mL"},
      {"measurement": "MIC", "setting": "[24]", "result": 0.002, "unit": "µg/mL"},
      {"measurement": "MIC", "setting": "[25]", "result": 0.128, "unit": "µg/mL"},
      {"measurement": "MIC", "setting": "[26]", "result": 0.512, "unit": "µg/mL"},
      {"measurement": "MIC", "setting": "[27]", "result": 0.008, "unit": "µg/mL"},
      {"measurement": "MIC", "setting": "[28]", "result": 0.256, "unit": "µg/mL"},
      {"measurement": "MIC", "setting": "[29]", "result": 0.008, "unit": "µg/mL"},
      {"measurement": "MIC", "setting": "[30]", "result": 0.032, "unit": "µg/mL"},
      {"measurement": "inhibition", "setting": "[31]", "result": "Active"},
      {"measurement": "MIC", "setting": "[32]", "result": 0.032, "unit": "µg/mL"},
      {"measurement": "MIC", "setting": "[33]", "result": 0.004, "unit": "µg/mL"},
      {"measurement": "MIC", "setting": "[34]", "result": 0.008, "unit": "µg/mL"},
      {"measurement": "inhibition", "setting": "[35]", "result": "Active"},
      {"measurement": "MIC", "setting": "[36]", "result": 0.032, "unit": "µg/mL"}
    ]},
    {"compound": "CO/N=C(\\C(=O)N[C@@H]1C(=O)N2C(C(=O)O)=C(COC(N)=O)CS[C@H]12)c1ccco1", "note": "[CEFUROXIME]", "values": [
      {"measurement": "MIC", "setting": "[12]", "result": 8.19, "unit": "µg/mL"},
      {"measurement": "MIC", "setting": "[18]", "result": 1.02, "unit": "µg/mL"}
    ]},
    {"compound": "GENTAMICIN", "values": [
      {"measurement": "MIC", "setting": "[37]", "result": 0.002, "unit": "µg/mL"}
    ]}
  ]
}
